Where a name gives a salt, the structure may show the parent alone.
Molecular target: T1, human PLK4 (Homo sapiens, UniProt O00444)
T1 construct: amino terminal GST fusion of residues 1-391 of human PLK4; made in house; host or cells: E. coli
T1 sequence (O00444 1-391): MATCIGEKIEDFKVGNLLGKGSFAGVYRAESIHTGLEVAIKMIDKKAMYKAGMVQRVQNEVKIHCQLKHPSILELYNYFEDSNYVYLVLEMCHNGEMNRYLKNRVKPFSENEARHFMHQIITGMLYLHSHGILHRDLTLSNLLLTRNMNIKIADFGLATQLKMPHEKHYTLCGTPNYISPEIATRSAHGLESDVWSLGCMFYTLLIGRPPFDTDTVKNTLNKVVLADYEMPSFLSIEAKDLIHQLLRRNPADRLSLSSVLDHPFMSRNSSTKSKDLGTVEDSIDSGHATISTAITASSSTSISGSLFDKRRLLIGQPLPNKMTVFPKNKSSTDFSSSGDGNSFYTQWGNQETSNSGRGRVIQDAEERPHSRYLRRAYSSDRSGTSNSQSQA
Test: PLK4 Inhibition Assay (indirect ELISA)
Type: biochemical
Settings: 15 μM ATP, 4 nM GST-PLK4; read-out: PLK4 IC50 Ranges
Experimental: The protein was purified from clarified cell extracts after induction at 15° C. overnight using glutathione sepharose, gel permeation chromatography, and ion exchange (Resource Q). The resulting protein was dephosphorylated with lambda phosphatase (NEB cat #P0753), and resolved from the phosphatase using gluthione sepharose. The dephosphorylated GST-PLK4 was stored in aliquots at −80° C. until use. PLK4 activity was measured using an indirect ELISA detection system. […] Compounds were pre-incubated in the presence of enzyme for 15 minutes prior to addition of ATP and the activity remaining quantified using the above described activity assay. […] The IC50 value was determined using a non-linear 4 point logistic curve fit (XLfit4, IDBS) with the formula; (A+(B/(1+((x/C)^D)))), where A=background value, B=range, C=inflection point, D=curve fit parameter.

IC50 [µM] | Compound
< 5 | O=C1Nc2ncccc2/C1=C\c1ccc2[nH]ncc2c1 [Example A68, (E)-3-((1H-indazol-5-yl)methylene)-1H-pyrrolo[2,3-b]pyridin-2(3H)-one]
< 5 | O=C1Nc2ccccc2/C1=C\c1ccc2c(/C=C/c3ccc(C(F)(F)F)cc3)n[nH]c2c1 [Example A65, (E & Z)-3-((3-((E)-4-(trifluoromethyl)styryl)-1H-indazol-6-yl)-methylene)-indolin-2-one]
< 5 | CN1CCN(C(=O)/C=C/c2n[nH]c3cc(C=C4C(=O)Nc5ccccc54)ccc23)CC1 (mixture of isomers) [Example A66, (E and Z)-3-((3-((E)-3-(4-methylpiperazin-1-yl)-3-oxoprop-1-enyl)-1H-indazol-6-yl)methylene)indolin-2-one]
< 5 | O=C1Nc2ccccc2/C1=C\c1ccc2c(-c3nccs3)n[nH]c2c1 [Example A92, (E)-3-((3-(thiazol-2-yl)-1H-indazol-6-yl)methylene)indolin-2-one]
< 5 | CN1CCN(c2ccc(-c3n[nH]c4ccc(C=C5C(=O)Nc6ccccc65)cc34)cn2)CC1 (mixture of isomers) [Example A155, (E and Z)-3-((3-(6-(4-methylpiperazin-1-yl)pyridin-3-yl)-1H-indazol-5-yl)methylene)indolin-2-one]
5 to 50 | O=C1Nc2ccc(F)cc2C1=Nc1ccc2cn[nH]c2c1 [Example A75, (E and Z)-3-(1H-indazol-6-ylimino)-5-fluoroindolin-2-one]
< 5 | O=C1Nc2cccc(Br)c2/C1=C/c1ccc2cn[nH]c2c1 [Example A133, (Z)-3-((1H-indazol-6-yl)methylene)-4-bromoindolin-2-one]
< 5 | O=C1Nc2ccccc2/C1=C/c1cc(Br)c2cn[nH]c2c1 [Example A53b, (Z)-3-((4-bromo-1H-indazol-6-yl)methylene)indolin-2-one]
< 5 | O=C1Nc2ccccc2C1=Cc1ccc2c(/C=C/c3ccc(CN4CCOCC4)cc3)n[nH]c2c1 (mixture of isomers) [Example A154, (E and Z)-3-((3-(4-(morpholinomethyl)styryl)-1H-indazol-6-yl)-methylene)indolin-2-one]
< 5 | CC(C)NC(=O)Nc1cccc2c1NC(=O)/C2=C/c1ccc2cn[nH]c2c1 [Example A48, (E)-1-(3-((1H-indazol-6-yl)methylene)-2-oxoindolin-7-yl)-3-isopropyl-urea]
5 to 50 | O=C1Nc2cc(Br)ccc2C1=Nc1ccc2cn[nH]c2c1 [Example A76, (E and Z)-3-(1H-indazol-6-ylimino)-6-bromoindolin-2-one]
5 to 50 | O=C1Nc2cc(-c3cccnc3)ccc2C1=Cc1ccc2cn[nH]c2c1 (mixture of isomers) [Example A28, (E and Z)-3-(3-((1H-indazol-6-yl)methylene)-2-oxoindolin-6-yl)pyridinium 2,2,2-trifluoroacetate]
< 5 | O=C1Nc2ccccc2C1=Cc1ccc2c(-c3cnc4ccccc4c3)n[nH]c2c1 (mixture of isomers) [Example A95, (E and Z)-3-((3-(quinolin-3-yl)-1H-indazol-6-yl)methylene)indolin-2-one]
< 5 | O=C1Nc2ccc(C(F)(F)F)cc2C1=Cc1ccc2cn[nH]c2c1 (mixture of isomers) [Example A82, (E and Z)-3-((1H-indazol-6-yl)methylene)-5-(trifluoromethyl)-indolin-2-one]
< 5 | O=C1Nc2ccccc2/C1=C\c1ccc2c(I)n[nH]c2c1 [Example A39, (E)-3-((3-iodo-1H-indazol-6-yl)methylene)indolin-2-one]
< 5 | O=CNc1cccc2c1NC(=O)C2=Cc1ccc2cn[nH]c2c1 (mixture of isomers) [Example A50, (E and Z)—N-(3-((1H-indazol-6-yl)methylene)-2-oxoindolin-7-yl)formamide]

IC50 [µM] | Compound
5 to 50 | O=C1Nc2ccc(F)cc2C1=Nc1ccc2[nH]ncc2c1 [Example A79, (E and Z)-3-(1H-indazol-5-ylimino)-5-fluoroindolin-2-one]
< 5 | O=C1Nc2ccccc2C1=Cc1ccc2c(-c3cc4ccccc4[nH]3)n[nH]c2c1 (mixture of isomers) [Example A90, (E and Z)-3-((3-(1H-indol-2-yl)-1H-indazol-6-yl)methylene)indolin-2-one]
< 5 | Cn1ccnc1/C=C/c1n[nH]c2cc(C=C3C(=O)Nc4ccccc43)ccc12 (mixture of isomers) [Example A105, (E and Z)-3-((3-((E)-2-(1-methyl-1H-imidazol-2-yl)vinyl)-1H-indazol-6-yl)methylene)indolin-2-one]
5 to 50 | O=C1Nc2ccccc2C1=Nc1ccc2[nH]ncc2c1 [Example A77, (E and Z)-3-(1H-indazol-5-ylimino)indolin-2-one]
< 5 | Cc1ccc2c(c1)C(=Nc1ccc3cn[nH]c3c1)C(=O)N2 [Example A74, (E and Z)-3-(1H-indazol-6-ylimino)-5-methylindolin-2-one]
< 5 | O=C1Nc2ccccc2C1=Cc1ccc2c(-c3ccn[nH]3)n[nH]c2c1 (mixture of isomers) [Example A98, (E and Z)-3-((3-(1H-pyrazol-5-yl)-1H-indazol-6-yl)methylene)-indolin-2-one]
< 5 | O=C1Nc2ccccc2C1=Cc1ccc2[nH]nc(/C=C/c3ccncc3)c2c1 (mixture of isomers) [Example A131, (E and Z)-3-((3-((E)-2-(pyridin-4-yl)vinyl)-1H-indazol-5-yl)-methylene)indolin-2-one hydrochloride]
< 5 | Cc1ccc2c(c1)C(=Nc1ccc3[nH]ncc3c1)C(=O)N2 [Example A78, (E and Z)-3-(1H-indazol-5-ylimino)-5-methylindolin-2-one]
< 5 | COc1cc2c(cc1OC)/C(=C\c1ccc3cn[nH]c3c1)C(=O)N2 [Example A135, (E)-3-((1H-indazol-6-yl)methylene)-5,6-dimethoxyindolin-2-one]
< 5 | O=C1Nc2ccc(Cl)nc2/C1=C\c1ccc2cn[nH]c2c1 [Example A134, (E)-3-((1H-indazol-6-yl)methylene)-5-chloro-1H-pyrrolo[3,2-b]pyridin-2(3H)-one]
< 5 | COC(=O)c1cccc2c1NC(=O)C2=Cc1ccc2cn[nH]c2c1 (mixture of isomers) [Example A46, (E and Z)-methyl 3-((1H-indazol-6-yl)methylene)-2-oxoindoline-7-carboxylate]
< 5 | O=C1Nc2ccccc2/C1=C\c1cc(Cl)c2cn[nH]c2c1 [Example A52, (E)-3-((4-chloro-1H-indazol-6-yl)methylene)indolin-2-one]
< 5 | O=C1Nc2c(Br)cccc2/C1=C\c1ccc2cn[nH]c2c1 [Example A44, (E)-3-((1H-indazol-6-yl)methylene)-7-bromoindolin-2-one]
< 5 | O=C1Nc2ccccc2/C1=C\c1ccc2c(C3CC3)n[nH]c2c1 [Example A102, (E)-3-((3-cyclopropyl-1H-indazol-6-yl)methylene)indolin-2-one]
5 to 50 | Nc1n[nH]c2ccc(C=C3C(=O)Nc4ccccc43)cc12 (mixture of isomers) [Example A40, (E & Z)-3-((3-amino-1H-indazol-5-yl)methylene)indolin-2-one]
< 5 | O=C1Nc2ccccc2C1=Nc1ccc2cn[nH]c2c1 [Example A73, (E and Z)-3-(1H-indazol-6-ylimino)indolin-2-one]

Reference: US8765748B2, “Indazolyl, benzimidazolyl, benzotriazolyl substituted indolinone derivatives as kinase inhibitors useful in the treatment of cancer” (University Health Network, priority 2007, dated 2014)
